Laboratory results as given in publication PMC3081938 (Journal of natural products, 2011).
Entries after “also recorded” stand apart in the source; their conditions may differ.

Assays:
DOP receptors = DOP receptors (Homo sapiens, UniProt P41143); type: binding
KOP receptors [1] = biological target: T1, KOP receptors (Homo sapiens, UniProt P41145); assay: biochemical; type: biochemical
κ opioid (KOP) receptors = conditions: cited from earlier work
[2] = tested on: opioid mediated antinociceptive properties; conditions: rats; cited from earlier work
5-HT2A receptor = conditions: cited from earlier work
[3] = tested on: locomotor effects of cocaine; conditions: rats; cited from earlier work
KOP receptors [4] = biological target: T1, KOP receptors; assay: biochemical; type: binding

T1 sequence (P41145 whole entry): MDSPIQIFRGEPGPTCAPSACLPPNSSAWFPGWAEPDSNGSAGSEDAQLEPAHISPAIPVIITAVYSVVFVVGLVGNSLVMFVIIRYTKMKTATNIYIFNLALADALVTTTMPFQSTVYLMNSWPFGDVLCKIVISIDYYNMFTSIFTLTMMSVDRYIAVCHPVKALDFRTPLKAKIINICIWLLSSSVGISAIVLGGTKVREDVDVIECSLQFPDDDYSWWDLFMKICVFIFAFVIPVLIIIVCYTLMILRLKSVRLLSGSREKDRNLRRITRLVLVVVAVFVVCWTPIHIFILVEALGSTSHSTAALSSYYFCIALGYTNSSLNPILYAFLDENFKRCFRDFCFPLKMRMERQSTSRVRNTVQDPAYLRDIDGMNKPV
Chain of DOP receptors (P41143 whole entry): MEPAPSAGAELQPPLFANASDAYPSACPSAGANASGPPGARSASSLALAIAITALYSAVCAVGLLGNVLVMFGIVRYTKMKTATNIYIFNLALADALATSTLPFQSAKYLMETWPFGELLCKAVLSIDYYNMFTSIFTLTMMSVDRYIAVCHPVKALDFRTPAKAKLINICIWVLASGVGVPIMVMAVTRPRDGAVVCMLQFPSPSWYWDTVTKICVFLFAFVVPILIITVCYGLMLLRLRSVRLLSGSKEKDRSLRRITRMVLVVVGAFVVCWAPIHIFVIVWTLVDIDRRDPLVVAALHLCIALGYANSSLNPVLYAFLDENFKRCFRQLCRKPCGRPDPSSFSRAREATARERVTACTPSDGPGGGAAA

SMILES: COC(=O)[C@@H]1C[C@H](OC(C)=O)C(=O)[C@H]2[C@@]1(C)CC[C@H]1C(=O)O[C@H](C3=CC4OC3C3C5OC(c6c5c5ccccc5c(=O)c5ccccc65)C43)C[C@]21C (stereo partly drawn) [Compound 11, (2S,4aR,6aR,7R,9S,10aS,10bR)-Methyl 9-acetoxy-2-(8,8a,9,12,12a,13-hexahydro-8,13:9,12-diepoxy-5H-dibenzo[3,4:6,7]cyclohept[1,2]naphthanen-5-on-10-yl)-6a,10b-dimethyl-4,10-dioxododecahydro-1H-benzo[f]isochromene-7-carboxylate]
- Ki ± SD (nM) DOP (DOP receptors): no appreciable affinity

SMILES: CCOC(=O)C1=C(C(=O)OCC)C2OC1C=C2[C@@H]1C[C@]2(C)[C@H]3C(=O)[C@@H](OC(C)=O)C[C@@H](C(=O)OC)[C@]3(C)CC[C@H]2C(=O)O1 (stereo partly drawn) [Compound 5, Diethyl 5-((2S,4aR,6aR,7R,9S,10aS,10bR)-9-acetoxy-7-(methoxycarbonyl)-6a,10b-dimethyl-4,10-dioxododecahydro-1H-benzo[f]isochromen-2-yl)-7-oxabicyclo[2.2.1]hepta-2,5-diene-2,3-dicarboxylate]
- Fold increase in affinity for DOP receptors (DOP receptors): over 4 fold
- EC50 (KOP receptors [1]): 2150 nM
- Efficacy at KOP receptors (in words) (KOP receptors [1]): full agonists; also recorded: high efficacy

SMILES: COC(=O)[C@@H]1C[C@H](OC(C)=O)C(=O)[C@H]2[C@@]1(C)CC[C@H]1C(=O)O[C@H](c3ccoc3)C[C@]21C [Compound 1, (2S,4aR,6aR,7R,9S,10aS,10bR)-methyl 9-acetoxy-2-(furan-3-yl)-6a,10b-dimethyl-4,10-dioxo-dodecahydro-1H-benzo[f]isochromene-7-carboxylate]
- Agonism at κ opioid (KOP) receptors (κ opioid (KOP) receptors): full agonist
- KOP ED50 ± SD (KOP receptors [1]): 40 nM
- Antinociceptive properties [2]: opioid mediated antinociceptive properties
- Affinity for the 5-HT2A receptor (5-HT2A receptor): does not have any affinity
- Effect on locomotor effects of cocaine [3]: can block the locomotor effects of cocaine

SMILES: COC(=O)c1ccc([C@@H]2C[C@]3(C)[C@H]4C(=O)[C@@H](OC(C)=O)C[C@@H](C(=O)OC)[C@]4(C)CC[C@H]3C(=O)O2)cc1C(=O)OC [Compound 14, Dimethyl 4-((2S,4aR,6aR,7R,9S,10aS,10bR)-9-acetoxy-7-(methoxycarbonyl)-6a,10b-dimethyl-4,10-dioxododecahydro-1H-benzo[f]isochromen-2-yl)phthalate]
- Ki (KOP receptors [4]): 228 nM

SMILES: COC(=O)[C@@H]1C[C@H](OC(C)=O)C(=O)[C@H]2[C@@]1(C)CC[C@H]1C(=O)O[C@H](C3=CC4OC3C3C4C4OC3(C)c3c4c4ccccc4c(=O)c4ccccc34)C[C@]21C (stereo partly drawn) [Compound 12, (2S,4aR,6aR,7R,9S,10aS,10bR)-Methyl 9-acetoxy-2-(8,8a,9,12,12a,13-hexahydro-8-methyl-8,13:9,12-diepoxy-5H-dibenzo[3,4:6,7]cyclohept[1,2]naphthanen-5-on-10-yl)-6a,10b-dimethyl-4,10-dioxododecahydro-1H-benzo[f]isochromene-7-carboxylate]
- Fold increase in affinity for KOP receptors (KOP receptors [4]): 44 fold

SMILES: COC(=O)[C@@H]1C[C@H](OC(C)=O)C(=O)[C@H]2[C@@]1(C)CC[C@H]1C(=O)O[C@H](c3ccc4ccccc4c3)C[C@]21C [Compound 15, (2S,4aR,6aR,7R,9S,10aS,10bR)-methyl 9-acetoxy-6a,10b-dimethyl-2-(naphthalen-2-yl)-4,10-dioxododecahydro-1H-benzo[f]isochromene-7-carboxylate]
- Ki (KOP receptors [4]): 286 nM

SMILES: COC(=O)C1=C(C(=O)OC)C2OC1C=C2[C@@H]1C[C@]2(C)[C@H]3C(=O)[C@@H](OC(C)=O)C[C@@H](C(=O)OC)[C@]3(C)CC[C@H]2C(=O)O1 (stereo partly drawn) [Compound 6, Dimethyl 5-((2S,4aR,6aR,7R,9S,10aS,10bR)-9-acetoxy-7-(methoxycarbonyl)-6a,10b-dimethyl-4,10-dioxododecahydro-1H-benzo[f]isochromen-2-yl)-7-oxabicyclo[2.2.1]hepta-2,5-diene-2,3-dicarboxylate]
- EC50 (KOP receptors [1]): 980 ± 200 nM
- Efficacy at KOP receptors (in words) (KOP receptors [1]): full agonist
